What was measured:
[1] = Bone marrow toxicity analysis (blood RBC and WBC counts); format: in vivo, BALB/c nude mice; settings: i.v. 50 μM, 200 μL; blood 24 h post-injection; n = 3
Procedure: Bone marrow toxicity analysis. The bone marrow toxicity of CTSK-APPA and CTSK-APP was assessed by blood analyses in mice. SPF grade 4-week-old BALB/c nude mice were intravenously injected with CTSK-APPA(50 μM, 200 μL) or saline (200 μL). The blood samples were collected in anticoagulant tubes at 24 h post-injection and stored at 4°C. The red blood count (RBC) and white blood count (WBC) were further measured.
Renal clearance efficiency studies. SPF grade 4-week-old BALB/c nude mice were intravenously injected with CTSK-APPA or CTSK-APP (50 μM, 200 μL) and placed in metabolic cages. The urine was collected at 3, 6, and 24 h post-injection, and then centrifuged at 5000 r.p.m. for 5 min. The supernatants containing excreted probes were quantified by using a UV-vis absorption spectrometer. […]
In vivo Bioluminescence, DR, CT, and MR imaging. […] Then BL imaging was recorded on an IVIS Spectrum imaging system at 10 min post-injection under anesthesia using isoflurane. All data were analyzed with the Living Image software. DR, CT, and MR imaging were recorded on an IVIS Spectrum imaging system, a single-photon emission computed tomography imaging system, and a preclinical magnetic resonance solution system, respectively.
Real-time tumor imaging. […] Fluorescence and PA images were acquired at 0, 1, 2, 4, 8, 12, and 24 h post-injection. […]
Histology. […] Images were captured by using a fluorescence microscope. […]

[2] = target: T1, cathepsin K (CTSK) (Homo sapiens, UniProt P43235); assay: CTSK activation of probe adsorbed on HA; format: biochemical; settings: probe 10 μM on HA 10 mg/mL (30 min), then CTSK 200 ng/mL, n = 3
T1 sequence (P43235 115-329): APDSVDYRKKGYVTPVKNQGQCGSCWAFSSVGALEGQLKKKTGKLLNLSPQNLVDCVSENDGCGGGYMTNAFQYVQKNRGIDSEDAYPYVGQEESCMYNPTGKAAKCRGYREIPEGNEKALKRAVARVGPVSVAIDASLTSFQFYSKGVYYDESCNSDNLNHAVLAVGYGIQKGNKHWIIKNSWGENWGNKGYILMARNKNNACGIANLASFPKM
Procedure: In Vitro bone-binding and CTSK activation assay. Hydroxyapatite (HA) was used as a substitute for bone in vitro to evaluate the bone-binding ability of CTSK-APPA and CTSK-APP. CTSK-APPA or CTSK-APP (10 μM) was mildly stirred with HA (10 mg/mL) at 37 °C for different times (0, 10, 30, 60, and 120 min). The mixture was centrifugated at 4000 g for 5 min and then washed with a 10-fold excess of PBS (1×) three times. The efficiency of HA binding was determined from the fluorescence intensities of the precipitation according to the equation: (F – Fblank)/(F0 – Fblank)*100%, where F represents the fluorescence intensity of the precipitation incubated with HA for a determined time, and Fblank represents the blank fluorescence intensity. After verifying the appropriate bone-binding time, CTSK-APPA or CTSK-APP (10 μM) was mixed with HA (10 mg/mL) at 37 °C for 30 min, and then CTSK (200 ng/mL) was added to the corresponding mixture and incubated at 37 °C for another 1 h under mild stirring. The mixture was centrifugated at 4000 g for 5 min and then washed with a 10-fold excess of MES buffer (50 mM, pH 6.0) three times. Fluorescence images were captured by using the IVIS Spectrum imaging system with excitation at 660 ± 10 nm and emission at 710 ± 10 nm. PA images were captured by using a MSOT scanner with excitation at 700 nm. […]

[3] = Hydroxyapatite (HA) adsorption assay (in vitro bone binding); settings: probe 10 μM, HA 10 mg/mL, 37 °C, fluorescence of precipitate
Procedure: In Vitro bone-binding and CTSK activation assay. Hydroxyapatite (HA) was used as a substitute for bone in vitro to evaluate the bone-binding ability of CTSK-APPA and CTSK-APP. CTSK-APPA or CTSK-APP (10 μM) was mildly stirred with HA (10 mg/mL) at 37 °C for different times (0, 10, 30, 60, and 120 min). The mixture was centrifugated at 4000 g for 5 min and then washed with a 10-fold excess of PBS (1×) three times. The efficiency of HA binding was determined from the fluorescence intensities of the precipitation according to the equation: (F – Fblank)/(F0 – Fblank)*100%, where F represents the fluorescence intensity of the precipitation incubated with HA for a determined time, and Fblank represents the blank fluorescence intensity. […]

In the case of Cbz‐Leu‐Arg‐OH [CTSK-APPA], the “red blood cell (RBC) and white blood cell (WBC) counts vs saline group” value [1] is reported as “No apparent differences”, the “fluorescence on/off ratio of HA-adsorbed probe” value ([2]; Ex 660 nm, 720 nm) is reported as 5.1 and the “enhancement factor for PA signal of HA-adsorbed probe” value ([2]; Ex 700 nm) is reported as “approximately 2.8”. For the same substance, the “HA-binding efficiency after 30 min” value [3] was “approximately 96%”.
